Data published in article PMC3391414 (Journal of Agricultural and Food Chemistry, 2011).
“Also recorded” adds a separate entry of the source.

Tests used:
UGT1A1 = target: T1, UGT1A1 (Homo sapiens, UniProt P22309); assay: Glucuronidation by recombinant human UGT1A1
T1 sequence (P22309 26-533): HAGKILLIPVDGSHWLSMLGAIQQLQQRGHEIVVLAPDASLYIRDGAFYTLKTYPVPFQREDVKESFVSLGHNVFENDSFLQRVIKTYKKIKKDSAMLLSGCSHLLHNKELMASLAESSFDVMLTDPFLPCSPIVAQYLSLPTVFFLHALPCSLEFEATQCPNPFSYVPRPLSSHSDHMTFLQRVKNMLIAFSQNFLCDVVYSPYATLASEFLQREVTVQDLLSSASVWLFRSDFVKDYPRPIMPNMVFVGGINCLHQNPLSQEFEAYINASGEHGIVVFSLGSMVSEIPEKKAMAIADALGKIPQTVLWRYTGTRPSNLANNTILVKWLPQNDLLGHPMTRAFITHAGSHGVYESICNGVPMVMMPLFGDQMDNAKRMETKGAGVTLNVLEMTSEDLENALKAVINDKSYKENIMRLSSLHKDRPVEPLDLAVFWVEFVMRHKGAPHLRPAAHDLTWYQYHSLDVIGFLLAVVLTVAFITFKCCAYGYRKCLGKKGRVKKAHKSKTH

UGT1A9 = target: T2, UGT1A9 (Homo sapiens, UniProt O60656); assay: Glucuronidation by recombinant human UGT1A9
T2 sequence (O60656 26-530): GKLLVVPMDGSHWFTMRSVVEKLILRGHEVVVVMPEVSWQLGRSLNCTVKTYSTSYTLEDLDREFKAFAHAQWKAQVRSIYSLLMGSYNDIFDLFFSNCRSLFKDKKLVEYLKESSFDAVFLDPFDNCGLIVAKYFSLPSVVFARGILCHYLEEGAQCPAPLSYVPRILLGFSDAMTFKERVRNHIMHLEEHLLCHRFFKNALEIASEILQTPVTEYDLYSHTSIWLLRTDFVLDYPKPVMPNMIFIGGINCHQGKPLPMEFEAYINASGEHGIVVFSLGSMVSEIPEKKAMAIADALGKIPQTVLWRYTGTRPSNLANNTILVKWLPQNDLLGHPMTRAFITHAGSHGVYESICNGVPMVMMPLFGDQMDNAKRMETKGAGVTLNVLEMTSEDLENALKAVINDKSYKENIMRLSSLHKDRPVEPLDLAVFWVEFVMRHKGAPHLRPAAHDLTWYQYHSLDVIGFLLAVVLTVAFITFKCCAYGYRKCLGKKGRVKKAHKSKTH

[1] = test system: UGT 1A1, 1A3, 1A6, 1A7, 1A8, 1A9, 1A10 and 2B7; assay: Glucuronidation by the panel of 8 recombinant human UGT isoforms; conditions: substrate 10 μM
UGT1A3 = target: T3, UGT1A3 (Homo sapiens, UniProt P35503); assay: Glucuronidation by recombinant human UGT1A3
T3 sequence (P35503 29-534): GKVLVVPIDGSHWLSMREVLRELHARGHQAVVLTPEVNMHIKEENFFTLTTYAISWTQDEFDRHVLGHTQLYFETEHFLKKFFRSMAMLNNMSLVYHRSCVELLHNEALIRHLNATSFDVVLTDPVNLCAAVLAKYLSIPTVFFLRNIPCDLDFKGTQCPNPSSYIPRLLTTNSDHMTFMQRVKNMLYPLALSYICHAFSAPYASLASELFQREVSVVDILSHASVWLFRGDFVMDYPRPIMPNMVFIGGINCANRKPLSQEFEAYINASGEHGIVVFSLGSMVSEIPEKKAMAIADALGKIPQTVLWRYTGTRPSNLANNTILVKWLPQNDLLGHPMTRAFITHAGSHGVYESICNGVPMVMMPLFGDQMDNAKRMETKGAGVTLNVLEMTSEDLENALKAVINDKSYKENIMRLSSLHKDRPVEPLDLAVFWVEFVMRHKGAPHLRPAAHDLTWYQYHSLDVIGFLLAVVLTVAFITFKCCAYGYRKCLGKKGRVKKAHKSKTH

UGT1A8 = target: T4, UGT1A8 (Homo sapiens, UniProt Q9HAW9); assay: Glucuronidation by recombinant human UGT1A8; conditions: UGT1A8, substrate 35 μM
T4 sequence (Q9HAW9 26-530): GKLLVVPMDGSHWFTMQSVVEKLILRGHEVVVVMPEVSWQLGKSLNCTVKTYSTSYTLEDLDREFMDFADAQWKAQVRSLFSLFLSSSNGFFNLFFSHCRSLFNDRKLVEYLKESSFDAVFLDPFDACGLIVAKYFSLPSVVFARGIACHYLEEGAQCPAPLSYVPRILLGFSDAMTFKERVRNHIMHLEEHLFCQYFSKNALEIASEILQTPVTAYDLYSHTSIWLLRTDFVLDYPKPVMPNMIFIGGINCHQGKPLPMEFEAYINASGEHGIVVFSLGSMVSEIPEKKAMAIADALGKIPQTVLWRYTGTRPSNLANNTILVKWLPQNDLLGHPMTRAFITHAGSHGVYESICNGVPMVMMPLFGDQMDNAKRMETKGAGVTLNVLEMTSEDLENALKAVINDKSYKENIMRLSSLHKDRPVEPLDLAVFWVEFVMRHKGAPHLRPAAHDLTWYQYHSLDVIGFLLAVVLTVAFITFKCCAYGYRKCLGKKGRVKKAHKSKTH

UGT1A6 = target: T5, UGT1A6 (Homo sapiens, UniProt P19224); assay: Glucuronidation by recombinant human UGT1A6; conditions: UGT1A6, substrate 10 μM
T5 sequence (P19224 27-532): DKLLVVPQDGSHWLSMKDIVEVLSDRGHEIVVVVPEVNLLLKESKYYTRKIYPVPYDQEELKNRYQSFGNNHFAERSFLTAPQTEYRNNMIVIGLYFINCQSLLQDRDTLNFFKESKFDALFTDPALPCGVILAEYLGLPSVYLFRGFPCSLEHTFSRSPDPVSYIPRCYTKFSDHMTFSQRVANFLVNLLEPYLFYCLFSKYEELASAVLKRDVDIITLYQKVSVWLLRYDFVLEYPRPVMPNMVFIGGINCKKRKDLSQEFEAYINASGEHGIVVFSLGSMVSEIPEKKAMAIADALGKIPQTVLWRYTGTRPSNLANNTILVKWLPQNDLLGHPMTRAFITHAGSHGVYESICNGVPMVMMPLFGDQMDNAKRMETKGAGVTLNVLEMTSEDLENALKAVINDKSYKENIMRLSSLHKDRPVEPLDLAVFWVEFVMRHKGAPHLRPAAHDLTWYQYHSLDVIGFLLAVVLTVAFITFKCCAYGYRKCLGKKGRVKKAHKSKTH

Row | Degree of regiospecificity (major glucuronide in bracket) (UGT1A1; UGT1A1, substrate 2.5 μM) | Degree of regiospecificity (major glucuronide in bracket) (UGT1A1; UGT1A1, substrate 10 μM) | Degree of regiospecificity (major glucuronide in bracket) (UGT1A9; UGT1A9, substrate 2.5 μM) | Degree of regiospecificity (major glucuronide in bracket) (UGT1A9; UGT1A9, substrate 10 μM) | Degree of regiospecificity (major glucuronide in bracket) (UGT1A3; UGT1A3, substrate 2.5 μM) | Degree of regiospecificity (major glucuronide in bracket) (UGT1A3; UGT1A3, substrate 10 μM) | SMILES | Glucuronidation and regiospecificity across the 8 UGT isoforms [1] | other results
1 | No (3-O, 4’-O) | No (3-O, 4’-O) | Dominant (3-O) | Dominant (3-O) | Dominant (3-O) | No (3-O, 4’-O) | O=c1c(O)c(-c2ccc(O)cc2)oc2ccccc12 [4'HFnol, 3,4’-dihydroxyflavone] | most isoforms showed dominant regiospecificity by glucuronidating almost only the 3-O position | Degree of regiospecificity (major glucuronide in bracket) (UGT1A1; UGT1A1, substrate 2.5 μM, listed as 4’HFnol): did not show any regiospecific preference; Degree of regiospecificity (major glucuronide in bracket) (UGT1A1; UGT1A1, substrate 10 μM, listed as 4’HFnol): no regiospecificity; also recorded: did not show any regiospecific preference; Degree of regiospecificity (major glucuronide in bracket) (UGT1A3; UGT1A3, substrate 10 μM, listed as 4’HFnol): no regiospecificity
2 | Dominant (4’-O) | Dominant (4’-O) | Dominant (4’-O) | Dominant (4’-O) | Dominant (4’-O) | Moderate (4’-O) | O=c1cc(-c2ccc(O)cc2)oc2cccc(O)c12 [5,4'DHF, 5,4’-dihydroxyflavone] | 4’-O was the preferred position of glucuronidation in all cases | Degree of regiospecificity (major glucuronide in bracket) (UGT1A1; UGT1A1, substrate 2.5 μM, listed as 5,4’DHF): dominant regiospecificity; Degree of regiospecificity (major glucuronide in bracket) (UGT1A1; UGT1A1, substrate 10 μM, listed as 5,4’DHF): dominant regiospecificity; Degree of regiospecificity (major glucuronide in bracket) (UGT1A9; UGT1A9, substrate 10 μM, listed as 5,4’DHF): dominant regiospecificity; Degree of regiospecificity (major glucuronide in bracket) (UGT1A3; UGT1A3, substrate 10 μM, listed as 5,4’DHF): moderate regiospecificity for 4’-O position
3 | Weak (7-O) | Moderate (7-O) | Moderate (7-O) | Moderate (7-O) | Dominant (7-O) | Dominant (7-O) | O=c1cc(-c2ccc(O)cc2)oc2cc(O)ccc12 [7,4'DHF, 7,4’-dihydroxyflavone] | except UGT1A6, all metabolizing isoforms glucuronidated both hydroxyl groups at C-7 and C-4’ positions | Degree of regiospecificity (major glucuronide in bracket) (UGT1A1; UGT1A1, substrate 2.5 μM, listed as 7,4’DHF): weak; Degree of regiospecificity (major glucuronide in bracket) (UGT1A1; UGT1A1, substrate 10 μM, listed as 7,4’DHF): moderate regiospecificity for glucuronidation of 7-O position; Degree of regiospecificity (major glucuronide in bracket) (UGT1A9; UGT1A9, substrate 10 μM, listed as 7,4’DHF): moderate regiospecificity for glucuronidation of 7-O position; Degree of regiospecificity (major glucuronide in bracket) (UGT1A3; UGT1A3, substrate 10 μM, listed as 7,4’DHF): dominant regiospecificity for glucuronidation of 7-O position
4 | – | – | – | – | – | – | O=c1c(O)c(-c2ccccc2)oc2ccccc12 [Fnol, 3-hydroxyflavone] | could be metabolized by any of the 8 UGT isoforms tested | –

Row | SMILES | Degree of regiospecificity (major glucuronide in bracket) (UGT1A1; UGT1A1, substrate 2.5 μM) | Degree of regiospecificity (major glucuronide in bracket) (UGT1A1; UGT1A1, substrate 10 μM) | Degree of regiospecificity (major glucuronide in bracket) (UGT1A9; UGT1A9, substrate 2.5 μM) | Degree of regiospecificity (major glucuronide in bracket) (UGT1A9; UGT1A9, substrate 10 μM) | Degree of regiospecificity (major glucuronide in bracket) (UGT1A3; UGT1A3, substrate 2.5 μM) | Degree of regiospecificity (major glucuronide in bracket) (UGT1A3; UGT1A3, substrate 10 μM) | Glucuronidation and regiospecificity across the 8 UGT isoforms [1] | other results
5 | O=c1c(O)c(-c2ccccc2)oc2cc(O)cc(O)c12 [5,7DHFnol, 3,5,7-trihydroxyflavone] | Weak (7-O) | weakly preferred the glucuronidation of 7-O over 3-O position; also recorded: Weak (7-O) | Weak (3-O) | did not show any regiospecific preference for any position; also recorded: No (3-O, 7-O) | Dominant (7-O) | dominantly regiospecific for 7-O; also recorded: Dominant (7-O) | – | Degree of regiospecificity (major glucuronide in bracket) (UGT1A9; UGT1A9, substrate 10 μM, listed as 5,7THFnol): 3-O and 7-O were glucuronidated at comparable rates
6 | O=c1c(O)c(-c2ccccc2)oc2cc(O)ccc12 [7HFnol, 3,7-dihydroxyflavone] | weak regiospecificity for 7-O position; also recorded: weakly preferred the glucuronidation of 7-O position | no preference; also recorded: did not show any regiospecific preference; also recorded: no regiospecificity; also recorded: No (3-O,7-O) | moderate regiospecificity for 3-O position | moderate regiospecificity for 3-O position | Moderate (7-O) | dominantly regiospecific by glucuronidating hydroxyl group only at C-7 position; also recorded: Dominant (7-O) | – | Degree of regiospecificity (3-O vs 7-O) (UGT1A8): moderate regiospecificity for 3-O position; Degree of regiospecificity (3-O vs 7-O) (UGT1A1; UGT1A1, substrate 35 μM): no regiospecificity; Degree of regiospecificity (3-O vs 7-O) (UGT1A9; UGT1A9, substrate 35 μM): no regiospecificity; Hydroxyl positions glucuronidated (UGT1A6): no position was glucuronidated
